These results are taken from patent publication US11208412B2 (DAEGU-GYEONGBUK MEDICAL INNOVATION FOUNDATION, priority 2017, dated 2021).

Holding throughout (experiment): Kinase selectivity, DiscoverX scanMAX Kinase assay panel (% control)
What all share (type): binding

In assay [1] the target is T1, kinases of the scanMAX Kinase assay panel (Homo sapiens, UniProt P53667).
T1 construct: purchased DiscoverX Co. (contract measurement) scanMAX Kinase assay panel
Conditions: LIMK1; 1 uM. An outline of the steps:
(§1)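 Single-point screen, 1 uM cpd in DMSO. % ctrl = (cpd − pos ctrl)/(neg ctrl − pos ctrl)×100; pos ctrl = 0%, DMSO neg ctrl = 100%. Hit cutoff <35%.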

The target of assay [2] is T2, kinases of the scanMAX Kinase assay panel (Homo sapiens, UniProt Q8WXR4).
T2 construct: purchased DiscoverX Co. (contract measurement) scanMAX Kinase assay panel
T2 sequence (Q8WXR4 1-1341): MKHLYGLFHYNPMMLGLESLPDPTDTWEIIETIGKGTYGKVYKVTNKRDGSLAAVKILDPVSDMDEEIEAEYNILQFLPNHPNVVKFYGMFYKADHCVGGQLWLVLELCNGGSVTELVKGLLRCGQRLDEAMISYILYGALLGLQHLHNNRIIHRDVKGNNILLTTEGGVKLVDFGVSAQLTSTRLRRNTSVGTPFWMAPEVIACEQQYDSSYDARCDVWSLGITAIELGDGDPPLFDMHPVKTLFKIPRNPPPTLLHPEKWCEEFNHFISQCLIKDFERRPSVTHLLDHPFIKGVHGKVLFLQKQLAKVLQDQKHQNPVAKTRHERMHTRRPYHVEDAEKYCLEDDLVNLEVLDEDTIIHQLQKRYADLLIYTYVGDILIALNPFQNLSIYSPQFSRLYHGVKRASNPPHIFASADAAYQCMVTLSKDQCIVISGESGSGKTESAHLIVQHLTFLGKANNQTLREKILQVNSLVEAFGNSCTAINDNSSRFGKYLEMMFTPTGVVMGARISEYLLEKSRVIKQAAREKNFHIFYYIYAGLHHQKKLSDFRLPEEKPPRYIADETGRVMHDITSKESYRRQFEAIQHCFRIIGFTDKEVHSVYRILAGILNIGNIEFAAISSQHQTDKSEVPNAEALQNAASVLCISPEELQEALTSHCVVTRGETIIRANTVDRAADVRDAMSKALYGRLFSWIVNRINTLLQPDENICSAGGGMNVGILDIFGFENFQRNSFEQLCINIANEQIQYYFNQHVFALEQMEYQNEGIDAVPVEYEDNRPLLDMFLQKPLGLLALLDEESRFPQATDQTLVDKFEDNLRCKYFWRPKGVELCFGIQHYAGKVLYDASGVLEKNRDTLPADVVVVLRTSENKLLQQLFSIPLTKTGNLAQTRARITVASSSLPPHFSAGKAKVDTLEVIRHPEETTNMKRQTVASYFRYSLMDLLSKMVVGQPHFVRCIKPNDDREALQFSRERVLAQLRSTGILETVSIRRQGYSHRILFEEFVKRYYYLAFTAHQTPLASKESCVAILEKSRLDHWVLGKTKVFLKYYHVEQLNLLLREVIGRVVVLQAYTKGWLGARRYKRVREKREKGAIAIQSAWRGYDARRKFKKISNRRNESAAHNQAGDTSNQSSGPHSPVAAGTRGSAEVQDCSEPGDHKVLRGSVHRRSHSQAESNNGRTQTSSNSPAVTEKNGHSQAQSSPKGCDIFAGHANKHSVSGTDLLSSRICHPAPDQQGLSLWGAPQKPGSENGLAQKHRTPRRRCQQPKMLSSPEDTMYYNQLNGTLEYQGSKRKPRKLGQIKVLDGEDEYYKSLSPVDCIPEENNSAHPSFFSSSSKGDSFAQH
Conditions: MYO3B; 1 uM. An outline of the steps:
as §1

For assay [3], the target named is T3, kinases of the scanMAX Kinase assay panel (Homo sapiens, UniProt P57059).
T3 construct: purchased DiscoverX Co. (contract measurement) scanMAX Kinase assay panel
Conditions: kinase SIK; 1 uM in DMSO. An outline of the steps: as §1

Assay [4] deals with T4, kinases of the scanMAX Kinase assay panel (Homo sapiens, UniProt Q59H18).
T4 construct: purchased DiscoverX Co. (contract measurement) scanMAX Kinase assay panel
T4 sequence (Q59H18 1-835): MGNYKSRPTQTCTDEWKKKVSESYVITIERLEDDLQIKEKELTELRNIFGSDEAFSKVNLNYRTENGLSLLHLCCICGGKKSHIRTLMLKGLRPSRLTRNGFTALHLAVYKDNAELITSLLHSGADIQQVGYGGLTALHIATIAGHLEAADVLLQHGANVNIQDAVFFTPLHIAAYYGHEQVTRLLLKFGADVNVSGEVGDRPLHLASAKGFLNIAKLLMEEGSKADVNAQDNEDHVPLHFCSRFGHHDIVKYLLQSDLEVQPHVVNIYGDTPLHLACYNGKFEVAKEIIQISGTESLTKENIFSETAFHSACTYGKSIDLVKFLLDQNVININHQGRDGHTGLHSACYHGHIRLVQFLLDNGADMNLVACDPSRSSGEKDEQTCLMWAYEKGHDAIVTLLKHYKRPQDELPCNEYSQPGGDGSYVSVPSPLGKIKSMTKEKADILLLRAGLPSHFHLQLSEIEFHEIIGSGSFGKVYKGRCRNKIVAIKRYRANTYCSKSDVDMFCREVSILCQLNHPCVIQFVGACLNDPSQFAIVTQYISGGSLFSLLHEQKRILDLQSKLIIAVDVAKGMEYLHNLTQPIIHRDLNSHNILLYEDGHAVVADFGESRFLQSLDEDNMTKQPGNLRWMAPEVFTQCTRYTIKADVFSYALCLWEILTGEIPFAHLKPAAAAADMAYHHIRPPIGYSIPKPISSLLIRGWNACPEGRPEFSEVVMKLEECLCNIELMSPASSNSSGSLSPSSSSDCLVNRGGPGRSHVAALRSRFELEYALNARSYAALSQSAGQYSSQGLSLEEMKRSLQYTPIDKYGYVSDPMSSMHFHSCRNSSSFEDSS
To be noted: kinase TNNI3K; 1 uM in DMSO. An outline of the steps:
as §1

T1 sequence (P53667 whole entry): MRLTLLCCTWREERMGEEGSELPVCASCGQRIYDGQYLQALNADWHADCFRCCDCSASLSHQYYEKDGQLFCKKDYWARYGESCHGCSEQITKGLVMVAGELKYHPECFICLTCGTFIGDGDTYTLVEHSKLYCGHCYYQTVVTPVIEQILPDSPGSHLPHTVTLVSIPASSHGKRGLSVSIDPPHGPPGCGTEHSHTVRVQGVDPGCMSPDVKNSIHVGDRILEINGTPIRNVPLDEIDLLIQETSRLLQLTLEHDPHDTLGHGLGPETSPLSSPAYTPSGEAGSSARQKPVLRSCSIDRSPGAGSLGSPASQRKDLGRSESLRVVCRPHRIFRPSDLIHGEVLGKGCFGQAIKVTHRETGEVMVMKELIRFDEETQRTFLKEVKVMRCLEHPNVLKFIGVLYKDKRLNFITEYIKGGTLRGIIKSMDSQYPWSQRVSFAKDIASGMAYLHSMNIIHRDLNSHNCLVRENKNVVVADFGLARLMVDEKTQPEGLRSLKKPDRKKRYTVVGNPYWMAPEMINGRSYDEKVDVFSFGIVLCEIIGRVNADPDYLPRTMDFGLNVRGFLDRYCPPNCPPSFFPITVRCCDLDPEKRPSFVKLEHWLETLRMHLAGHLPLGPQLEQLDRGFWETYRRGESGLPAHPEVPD
T3 sequence (P57059 whole entry): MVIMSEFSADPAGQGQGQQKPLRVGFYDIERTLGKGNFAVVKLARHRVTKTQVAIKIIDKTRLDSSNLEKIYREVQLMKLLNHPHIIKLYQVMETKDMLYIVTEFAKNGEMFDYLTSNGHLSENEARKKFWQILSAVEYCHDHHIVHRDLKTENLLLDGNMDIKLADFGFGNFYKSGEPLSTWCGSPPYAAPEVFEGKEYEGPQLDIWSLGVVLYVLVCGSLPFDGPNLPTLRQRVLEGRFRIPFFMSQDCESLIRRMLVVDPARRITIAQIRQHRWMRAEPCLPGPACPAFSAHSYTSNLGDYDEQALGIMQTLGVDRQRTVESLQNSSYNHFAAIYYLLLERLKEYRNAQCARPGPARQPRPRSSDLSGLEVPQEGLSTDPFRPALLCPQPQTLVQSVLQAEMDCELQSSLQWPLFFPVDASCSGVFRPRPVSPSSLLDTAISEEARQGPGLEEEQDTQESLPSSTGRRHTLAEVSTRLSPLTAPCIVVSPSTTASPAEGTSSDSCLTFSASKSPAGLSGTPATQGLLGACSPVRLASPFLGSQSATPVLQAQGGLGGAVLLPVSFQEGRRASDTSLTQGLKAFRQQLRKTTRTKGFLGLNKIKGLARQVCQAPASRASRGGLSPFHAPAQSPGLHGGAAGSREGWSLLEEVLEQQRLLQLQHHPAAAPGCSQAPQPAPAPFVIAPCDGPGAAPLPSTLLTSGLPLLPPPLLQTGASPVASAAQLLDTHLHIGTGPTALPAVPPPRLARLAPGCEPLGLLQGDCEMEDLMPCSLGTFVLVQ

For `CC1(Nc2nc(Nc3cnn([C@H]4CCN(C5COC5)C[C@@H]4F)c3Cl)nc3[nH]cc(C#N)c23)CC1` [Example 52, 2-((5-chloro-1-((3S,4S)-3-fluoro-1-(oxetane-3-yl)piperidine-4-yl)-1H-pyrazole-4-yl)amino)((1-methylcyclopropyl)amino)-7H-pyrrolo[2,3-d]pyrimidine-5-carbonitrile], the remaining binding at 1 µM in assay [1] came out at 98%; in assay [2], 10%; in assay [3], 78%; in assay [4], 93%.

Turning to `CCNc1nc(Nc2ccc(C(=O)N3CCC(N4CCOCC4)CC3)cc2OC)nc2[nH]cc(C(F)(F)F)c12` [Example 104, (4-((4-(ethylamino)-5-(trifluoromethyl)-7H-pyrrolo[2,3-d]pyrimidine-2-yl)amino)-3-methoxyphenyl)(4-morpholinopiperidine-1-yl)methanone], the remaining binding at 1 µM amounted to 100% in assay [1], 19% in assay [2], 100% in assay [3] and 100% in assay [4].

Take `CNc1nc(Nc2ccc(C(=O)N3CCOCC3)cc2OC)nc2[nH]cc(C#N)c12` [Example 1, 2-((2-methoxy-4-(morpholine-4-carbonyl)phenyl)amino)-4-(methylamino)-7H-pyrrolo[2,3-d]pyrimidine-5-carbonitrile]: the remaining binding at 1 µM was 100% in assay [1], 84% in assay [2], 97% in assay [3] and 99% in assay [4].
